Assay: Determination of relaxivities r1 and r2 of contrast agents under MRI
Assay type: physicochemical
Description: During an MRI study, an MRI contrast agent generally shortens the value of a characteristic time constant known as the relaxation time of the nearby water protons at the tissues being examined to thereby enhance contrast of the image. The relaxivity of a contrast agent reflects how the relaxation rates of a solution change as a function of concentration [C]. Since a contrast agent may individually affect two relaxation rates (1/ΔT1 and 1/ΔT2), the degree of contrast as provided by a contrast agent is generally characterized under two corresponding relaxivities, i.e. r1 and r2 (L/mmol-s), which are defined by: 1/ΔT1=r1·[C] and 1/ΔT2=r2·[C]
The relaxation rates of a contrast agent in solution are obtained by graphing changes in relaxation rates (1/ΔT1) and (1/ΔT2) at different concentrations, with r1 and r2 being determined by the slopes of the graph.
For each of the contrast agents being tested, samples have been prepared in 10 different concentrations, namely, 1000 μg/ml, 750 μg/ml, 500 μg/ml, 250 μg/ml, 125 μg/ml, 62.50 μg/ml, 31.25 μg/ml, 15.63 μg/ml, 7.81 μg/ml and 3.91 μg/ml using DMF:H2O 4:1 as solvent for dilution of the respective stock samples.

[1] = 10 concentrations 3.91-1000 μg/ml in DMF:H2O 4:1

Row | Structure (SMILES) | r1 [1] [mL/µg/s] | r1 (molecular weight adjusted) [L/mmol/s]
1 | O=[N+]([O-])[O-].O=[N+]([O-])[O-].O=[N+]([O-])[O-].[Fe+3] [Fe(NO3)3, iron nitrate] | 0.0004 | 0.0968
2 | [Cl][Gd]([Cl])[Cl] [GdCl3] | 0.0494 | 13.0416
